Data set [1] can be described thus: Control experiment: stirring hydrophobic compound with pure water. As to conditions: for control experiment with water: outcome: compound stirred with water without solubilizer.
Data set [2] is described as follows: Organoleptic test of physiological cooling effect.
Text: The resulting mixture is a clear, homogeneous solution of WS-3 (˜0.83%) in aqueous Na-MMG.
Data set [3] in a line: Solubilization of hydrophobic organic compound in aqueous sodium monomenthyl glutarate (Na-MMG). As to conditions: for concentration of hydrophobic compound in clear, homogeneous solution in aqueous Na-MMG: MMG neutralised with 8.8% aqueous sodium bicarbonate; for times better dissolved in aqueous Na-MMG than in pure water: aqueous Na-MMG vs pure water.
Experimental: Aqueous sodium bicarbonate (98 g, 8.8% solution) is added over about 20 minutes to a stirred mixture of monomenthyl glutarate (“MMG,” 25 g) and dodecane (3.0 g). After the addition is complete and CO2 evolution stops, the mixture is stirred for 2 h and is then allowed to settle. The resulting mixture is a clear, homogeneous solution of dodecane (˜2.5%) in aqueous sodium monomenthyl glutarate (Na-MMG).
A clear aqueous solution of Na-MMG is obtained by reacting monomenthyl glutarate (25 g) with aqueous sodium bicarbonate (98 g of 8.8% solution). […] The mixture stirs for about 2 h and is allowed to cool to ambient temperature. […] Dilution with an equal volume of water produces a solution that remains clear for more than 40 days.
Aqueous sodium bicarbonate (196 g, 8.8% solution) is added to a stirred mixture of monomenthyl glutarate (50 g) and N-ethyl-p-menthane-3-carboxamide (“WS-3,” 2.0 g). After the addition is complete and CO2 evolution stops, the mixture is stirred for 1 h and is then allowed to sit overnight. The resulting mixture is a clear, homogeneous solution of WS-3 (˜0.83%) in aqueous Na-MMG.
More WS-3 (1.0 g) is added to the aqueous composition. The mixture stirs for 1 h and is allowed to stand overnight. The mixture is filtered to remove undissolved crystals (0.6 g).
Dilution with an equal volume of water produces a solution that remains clear for more than 40 days.
Data set [4] in a line: Dilution of the clear aqueous composition with an equal volume of water (clarity / emulsification). The format is physicochemical. As to conditions: clear composition in aqueous Na-MMG diluted 1:1 with water. The protocol:
It may be desirable to dilute the aqueous compositions with water. The amount of water that can be added while maintaining a clear aqueous solution depends on many factors known to those skilled in the art, including the nature of the hydrophobic organic compound, the particular monoester salt, the concentration of each of these components, and other factors. In general, the desirability of diluting the aqueous composition is determined empirically.

Data set [5] is described as follows: Solubilization of hydrophobic organic compound in aqueous sodium monooctyl glutarate (Na-MOG). The format is physicochemical. To be noted: MOG 22.6 g, procedure of Example 1. From the text: The procedure of Example 1 is followed except that monooctyl glutarate (MOG, 22.6 g) and p-cymene (5 g) are used. The resulting mixture is a clear, homogeneous solution of p-cymene (˜4.4%) in aqueous sodium monooctyl glutarate (Na-MOG).

The nature of data set [6]: Solubilization of hydrophobic organic compound in aqueous sodium monomenthyl succinate (Na-MMS). The class given is physicochemical. To be noted: MMS 23.7 g, procedure of Example 1. The text has this:
The procedure of Example 1 is followed except that monomenthyl succinate (MMS, 23.7 g) and p-cymene (3 g) are used. The resulting mixture is a clear, homogeneous solution of p-cymene (˜2.5%) in aqueous sodium monomenthyl succinate (Na-MMS).

Regarding `CCNC(=O)[C@@H]1C[C@H](C)CC[C@H]1C(C)C` [WS-3, N-ethyl-p-menthane-3-carboxamide], in data set [1] (20° C.), the “solubility in pure water” value was around 0.03%. For the same molecule, the “cooling effect when tested organoleptically” value in data set [2] (filtrate, ~1.0% WS-3 in aqueous Na-MMG) was “strong cooling effect”. Moreover, the “cooling effect when tested organoleptically” value in data set [2] (~0.83% WS-3 in aqueous Na-MMG, pH 7.4) is recorded as “strong cooling effect”. Besides, in data set [3], the “concentration of hydrophobic compound in clear, homogeneous solution in aqueous Na-MMG” value (“concentration … in aqueous Na-MMG” for short) is listed as around 0.83% and the “times better dissolved in aqueous Na-MMG than in pure water” value (“times better dissolved” below) is on record as “about 33 times”. Also, the “concentration of WS-3 in filtrate (aqueous Na-MMG) after removing undissolved crystals” value in data set [3] (more WS-3 added, stood overnight, filtered) is around 1.0%.

`CC(C)=CCCC(C)CCO` (stereo not drawn) [citronellol]: the “control experiment with water: outcome” value in data set [1] is recorded as “fail to produce a homogeneous mixture”. The “concentration … in aqueous Na-MMG” value in data set [3] was around 3.6%. Besides, the “time solution remains clear after dilution with an equal volume of water” value (“time solution remains clear” below) in data set [4] is recorded as “more than 40 days”.

For the molecule `CC(C)=CCCC(C)CC#N` (stereo not drawn) [citronellyl nitrile], the “control experiment with water: outcome” value in data set [1] is listed as “fail to produce a homogeneous mixture”. Also, in data set [3], the “concentration … in aqueous Na-MMG” value is reported as around 3.6%. In data set [4], the “emulsification after dilution with an equal volume of water” value (“emulsification after dilution” for short) is on record as “immediately produces an emulsion”.

For `C=C(C)[C@H]1CC=C(C)CC1` [d-limonene], in data set [1], the “control experiment with water: outcome” value is listed as “fails to produce a homogeneous mixture”.

Consider `CCCCCCCCCCCC` [dodecane], for which the “undissolved compound recovered after settling” value in data set [1] (12 g stirred with 876 g water for 2 h) amounted to 11.6 g. Besides, the “control experiment with water: outcome” value in data set [1] is reported as “fails to produce a homogeneous mixture”. In data set [3], the “concentration … in aqueous Na-MMG” value is around 2.5% and the “times better dissolved” value is “at least 50 times”. Besides, the “emulsification after dilution” value in data set [4] is “emulsifies within two days”.

`C=C(C)[C@@H]1CC=C(C)C(=O)C1` [l-carvone]: the “control experiment with water: outcome” value in data set [1] is “fail to produce a homogeneous mixture”. For the same molecule, the “concentration … in aqueous Na-MMG” value in data set [3] is around 3.6%. Moreover, in data set [4], the “time solution remains clear” value was “more than 40 days”.

For `CC(C)[C@@H]1CC[C@@H](C)C[C@H]1O` [l-menthol], in data set [1] (12 g in 876 g water, 2 h, initially 47° C. then ambient, filtered), the “menthol content of aqueous solution in pure water control (gas chromatography)” value is given as 0.06%. The “control experiment with water: outcome” value in data set [1] is “no homogeneous mixture results”. Besides, the “physiological cooling effect (organoleptic test)” value in data set [2] (~2.5% l-menthol solution in aqueous Na-MMG) was “strong physiological cooling effect”. Besides, in data set [3], the “concentration … in aqueous Na-MMG” value is given as around 2.5% and the “times better dissolved” value is recorded as “at least 40 times”. Also, the “time solution remains clear” value in data set [4] was “more than 40 days”.

In the case of `CC(C)[C@@H]1CC[C@@H](C)C[C@H]1OC(=O)[C@H](C)O` [l-menthyl lactate], the “control experiment with water: outcome” value in data set [1] is on record as “fail to produce a homogeneous mixture”. For the same molecule, the “time solution remains clear” value in data set [4] is “more than 40 days”.

In the case of `C=CC(C)(O)CCC=C(C)C` (stereo not drawn) [linalool], in data set [5], the “concentration of hydrophobic compound in clear, homogeneous solution in aqueous Na-MOG” value (from here on “concentration … in aqueous Na-MOG”) is given as around 2.7%. Besides, in data set [1], the “control experiment with water: outcome” value was “fail to produce a homogeneous mixture”.

Consider `Cc1ccc(C(C)C)cc1` [p-cymene], for which the “concentration of hydrophobic compound in clear, homogeneous solution in aqueous Na-MMS” value in data set [6] is around 2.5%. For the same molecule, the “concentration … in aqueous Na-MOG” value in data set [5] was around 4.4%. Also, the “control experiment with water: outcome” value in data set [1] is “fail to produce a homogeneous mixture”. Also, the “concentration … in aqueous Na-MMG” value in data set [3] is on record as around 3.6%. The “emulsification after dilution” value in data set [4] is at most 2 days.

`Cc1c(C)c2c(c(C)c1O)CCC(C)(CCCC(C)CCCC(C)CCCC(C)C)O2` (stereo not drawn) [α-tocopherol]: the “concentration … in aqueous Na-MOG” value in data set [5] is on record as around 2.6%. Further, in data set [1], the “control experiment with water: outcome” value is given as “fail to produce a homogeneous mixture”. Besides, the “time solution remains clear” value in data set [4] is recorded as “more than 40 days”.
